The record followed here is the supplement of paper PMC6723410.

Each structure is given as a SMILES string. Several values for one entry are separate records, joined by “and”; a condition that tells them apart may be missing. Equal entries are not always repeated.

The test relates to GUMC-403. Description: viability at highest tested concentration (max response) relative to DMSO (% of DMSO control); higher = less cytotoxic. The settings on record: library / dose series: MIPE library, 11-point 1:3 dilution, 48 h. In outline:
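Viability at the highest tested concentration is given relative to vehicle control. For this, conditionally reprogrammed patient-derived GUMC-403 papilloma cells at 700/well in 1536-well plates were exposed to 23 nL of pinned compound for 48 h. Luminescence from CellTiter-Glo was read on a ViewLux and scaled between empty wells (0%) and vehicle wells (100%).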

As to `CN(C[C@@H]1COCCO1)[S+]([O-])(=O)NC2=CC3=C(C=C2)\C=C/C4=C(C=C(C=N4)C5=C[N](C)N=C5)C3=O`, the viability (top concentration 46.1 µM) was determined as 114. The same measure, in the same setting: under `O=C(Nc1nc2cccc(-c3ccc(CN4CC[S+](=O)([O-])CC4)cc3)n2n1)C1CC1` stands 40.4. Same read-out and setting: then `Cc1cc(SCc2sc(-c3ccc(C(F)(F)F)c(F)c3)nc2C)ccc1OCC(=O)O`, with 127; and `O=C(CO)N1CCC(c2n[nH]c(-c3ccc(Cl)cc3)c2-c2ccncn2)CC1`, with 109; and `CCOC(=O)[C@H](CCc1ccccc1)N[C@H]1CS[C@H](c2cccs2)CN(CC(=O)O)C1=O.Cl`, with 118. Still for that read-out and setting: under `CCOC(=O)c1c(/C(C#N)=C\N)c2ccc(Cl)c(Cl)c2n1C` stands 92.2. `NC/1=N/C(=O)N(C[C@@H](CO)OC[P](O)(O)=O)/C=C1` registered a viability (top concentration 23 µM) of 104.

Under “top concentration 46.1 µM”, `C\C1=C(\C=C(C#N)/C(=O)N1)C2=C[N]3C=CN=C3C=C2` gave a viability of 96. Regarding `CCC(=O)NCC[C@@H]1CCc2ccc3c(c21)CCO3`, the viability (top concentration 46.1 µM) is 122. Still for that read-out and setting: then `C[C@@H]1[C@H](O)[C@@H](C)C=CC=CCCC=CC=CC=CC=C[C@H](O[C@H]2O[C@@H](C)[C@H](O)[C@@H](N)[C@H]2O)CC2O[C@](O)(C[C@@H](O)[C@H](O)CC[C@@H](O)C[C@@H](O)C[C@@H](O)CC(=O)O[C@H]1C)C[C@H](O)[C@H]2C(=O)O`, with 115; and `CN(C)CCC=C1C2=C(C=CC=C2)\C=C/C3=C1C=CC=C3`, with 115. As to `CC(C)c1cccc(C(C)C)c1O`, for the setting “top concentration 46.1 µM”, the viability amounted to 108.

Where the note is “top concentration 46.1 µM”, `C[C@](O)(COc1ccc(C#N)cc1)C(=O)Nc1ccc(C#N)c(C(F)(F)F)c1` registered a viability of 93.8. In turn, `O=C(O)C(=O)Nc1cccc(-c2nnn[nH]2)c1` registered a viability (top concentration 46.1 µM) of 120.

For `NC(=O)c1ncn([C@@H]2O[C@H](CO)[C@@H](O)[C@H]2O)c1N`, the viability (top concentration 46.1 µM) came out at 118. Same read-out and setting: under `COC1=CC=C2CN(C)CC[C@@]34\C=C/[C@H](O)C[C@@H]3OC1=C24` stands 122; under `C[C@]12CC[C@@H]3c4ccc(O)cc4C[C@@H](CCCCCCCCC[S+]([O-])CCCC(F)(F)C(F)(F)F)[C@H]3[C@@H]1CC[C@@H]2O` (some centres not stated), 114; under `OC1CCC(Nc2ncc3nc(Nc4c(F)cc(F)cc4F)n([C@@H]4CCOC4)c3n2)CC1` (some centres not stated), 95.5. On the same count and under the same terms, then `COc1ccc(-c2nc3cc(C4=NNC(=O)CC4C)ccc3[nH]2)cc1` (configuration not stated), with 119. For the compound `CN(C)[C@H]\1[C@@H]2C[C@H]3C(=C(O)\[C@]2(O)C(=O)\C(=C1O)C(N)=O)/C(=O)C4=C(O)C=CC=C4[C@@]3(C)O`, the viability (top concentration 46.1 µM) was found to be 106. Same read-out and setting: then `CCCCCN(CCC12CC3CC(CC(C3)C1)C2)C(=O)NCCCc1ccncc1`, with 89.8. Same read-out and setting: then `COC1=CC=C(C=C1)/C2=C(O)/C(=O)C3=C(O)C=C(O)C(=C3O2)CC=C(C)C`, with 138; and `O=C(O)c1cccnc1`, with 103; and `CCN1\C=C(C(O)=O)/C(=O)C2=C1C(=C(N3CCNC(C)C3)C(=C2)F)F` (configuration not stated), with 126.

`C[C@H](NCc1ccc(OCc2cccc(F)c2)cc1)C(N)=O` displayed a viability (top concentration 46.1 µM) of 80.3. The same measure, in the same setting: under `CCOC(=O)c1ncn2c1CN(C)C(=O)c1cc(F)ccc1-2` stands 108; under `CNC(=O)[C@H](CC/1=C/N=C\2/C=C\C\C=C12)NC(=O)[C@H](CC(C)C)CC(=O)NO`, 66.4.

With `CCOc1ccc(Nc2nc(-c3c(C)nc4ccccn34)cs2)cc1`, the viability (top concentration 46.1 µM) came to 101.

In turn, `COC(c1ccccc1)(c1ccccc1)[C@H](Oc1nc(C)cc(C)n1)C(=O)O` displayed a viability (top concentration 46.1 µM) of 136. The same measure, in the same setting: then `COc1ccc(CCC(=O)c2c(O)cc(O[C@@H]3O[C@H](CO)[C@@H](O)[C@H](O)[C@H]3O[C@@H]3O[C@@H](C)[C@H](O)[C@@H](O)[C@H]3O)cc2O)cc1O`, with 57.9. On the same count and under the same terms, then `CCCCCCCCCCCCCCCC(=O)OC[C@@H](NC(=O)C(Cl)Cl)[C@H](O)c1ccc([N+](=O)[O-])cc1`, with 130; and `CN(CCOc1ccc(CC2SC(=O)NC2=O)cc1)c1ccccn1` (configuration not stated), with 118. On the same count and under the same terms, under `CC(C)Cn1cnc2c(N)nc3ccccc3c21` stands 116; under `COc1ccc(/C=C/C(=O)Nc2ccccc2C(=O)O)cc1OC`, 106; under `NC[C@H]1O[C@H](O[C@H]2[C@H](O)[C@@H](O[C@H]3O[C@H](CO)[C@@H](O)[C@H](N)[C@H]3O)[C@H](N)C[C@@H]2N)[C@H](N)C[C@@H]1O`, 125. As for `C=CC(=O)Nc1cc(NC(=O)c2ccc(C)c(NC(=O)c3ccno3)c2)cc(C(F)(F)F)c1`, for the setting “top concentration 46.1 µM”, the viability amounted to 106. Same read-out and setting: then `CC[C@H](C)C(=O)O[C@H]1C[C@H](O)\C=C2\C=C/[C@H](C)[C@H](CC[C@@H](O)C[C@@H](O)CC(O)=O)[C@@H]12`, with 103.

`CN(C)C1=C(Br)C=C(C=C1)C\2NC3=C(\C4=C2C(=O)CC(C)(C)C4)C5=CC=CC=C5C=C3` (configuration not stated) displayed a viability (top concentration 46.1 µM) of 99.8. Still for that read-out and setting: under `COc1ccc([C@@H]2CC(=O)c3c(O)cc(O[C@@H]4O[C@H](CO[C@@H]5O[C@@H](C)[C@H](O)[C@@H](O)[C@H]5O)[C@@H](O)[C@H](O)[C@H]4O)cc3O2)cc1O` stands 94.4 and 102; under `Cc1cc(O)c2c(c1)C(=O)c1cc(O)cc(O)c1C2=O`, 114. As to `NC(=O)c1cccc2cn(-c3ccc([C@@H]4CCCNC4)cc3)nc12`, under “top concentration 46.1 µM”, the viability turned out to be 98.4.

Where the note is “top concentration 46.1 µM”, `COCCCOc1ccnc(C[S+]([O-])c2nc3ccccc3[n-]2)c1C` (configuration not stated) showed a viability of 120.

Regarding `CC(C)Nc1cc(C(F)(F)F)cc2nc(NC(=O)c3cccnc3)nn12`, the viability (top concentration 46.1 µM) was determined as 113. The same measure, in the same setting: under `O=P(O)(O)C(O)(Cc1cccnc1)P(=O)(O)[O][Na]` (configuration not stated) stands 123; under `c1cc2c(cc1[C@H]1OC[C@H]3[C@@H]1CO[C@@H]3c1ccc3c(c1)OCO3)OCO2`, 124; under `COc1cc([C@H]2Oc3cc([C@H]4Oc5cc(O)cc(O)c5C(=O)[C@@H]4O)ccc3O[C@@H]2CO)ccc1O`, 83.9. Still for that read-out and setting: under `CCc1c(C(=O)C(N)=O)c2c(OCC(=O)O)cccc2n1Cc1ccccc1` stands 103; under `COc1cc(C(C)=O)ccc1OCCCN1CCC(c2noc3cc(F)ccc23)CC1`, 102; under `CCC[C@H](Nc1nc(-c2ccc(NC(=O)NCC)c(OC)c2)ncc1C)c1cccnc1`, 94. The same measure, in the same setting: under `O=C1c2cccc(O)c2C(=O)c2c(O)cc(CO)cc21` stands 92.9; under `OC[C@H]1O[C@@H]2[C@@H](OC\3=N\C(=N)\C=C/[N@@]23)[C@@H]1O`, 124; under `COC(=O)Nc1nc2ccc([S+]([O-])c3ccccc3)cc2[nH]1` (configuration not stated), 95.4.

In turn, `COc1ccc(Cn2ccc3ccc(C(=O)NO)cc32)cc1` gave a viability (top concentration 46.1 µM) of 108. Same read-out and setting: under `CCOC(=O)c1c(C)n(C)c2ccc(O)cc12` stands 108. On to `CC(C)NCC(O)c1ccc(NS(C)(=O)=O)cc1` (configuration not stated), for which the viability (top concentration 46.1 µM) came out at 123.

With `CC/1=C/C(=O)N(O)/C(=C1)C2CCCCC2`, under “top concentration 46.1 µM”, the viability was found to be 27.2.

With `CC(C)(C#N)c1cc(Cn2cncn2)cc(C(C)(C)C#N)c1`, the viability (top concentration 46.1 µM) worked out at 116.
